The text below walks through data of ChEMBL document CHEMBL3739265, “Synthesis and biological evaluation of negative allosteric modulators of the Kv11.1(hERG) channel” (Eur J Med Chem, 2015).

For series [1], the target named is Kv11.1 (KCNH2, hERG) potassium channel (Homo sapiens, UniProt Q12809). Nature of the series: Allosteric modulation of [3H]-dofetilide binding at Kv11.1 channel (unknown origin) expressed in HEK293 cells at 10 uM after 6 mins by scintillation spectrometer analysis relative to control. In kind it is cell-based. The following applies: HEK293 cells expressing Kv11.1 channel, probe [3H]-dofetilide, read-out: Activity.
Sequence of Kv11.1 (KCNH2, hERG) potassium channel (Q12809 whole entry): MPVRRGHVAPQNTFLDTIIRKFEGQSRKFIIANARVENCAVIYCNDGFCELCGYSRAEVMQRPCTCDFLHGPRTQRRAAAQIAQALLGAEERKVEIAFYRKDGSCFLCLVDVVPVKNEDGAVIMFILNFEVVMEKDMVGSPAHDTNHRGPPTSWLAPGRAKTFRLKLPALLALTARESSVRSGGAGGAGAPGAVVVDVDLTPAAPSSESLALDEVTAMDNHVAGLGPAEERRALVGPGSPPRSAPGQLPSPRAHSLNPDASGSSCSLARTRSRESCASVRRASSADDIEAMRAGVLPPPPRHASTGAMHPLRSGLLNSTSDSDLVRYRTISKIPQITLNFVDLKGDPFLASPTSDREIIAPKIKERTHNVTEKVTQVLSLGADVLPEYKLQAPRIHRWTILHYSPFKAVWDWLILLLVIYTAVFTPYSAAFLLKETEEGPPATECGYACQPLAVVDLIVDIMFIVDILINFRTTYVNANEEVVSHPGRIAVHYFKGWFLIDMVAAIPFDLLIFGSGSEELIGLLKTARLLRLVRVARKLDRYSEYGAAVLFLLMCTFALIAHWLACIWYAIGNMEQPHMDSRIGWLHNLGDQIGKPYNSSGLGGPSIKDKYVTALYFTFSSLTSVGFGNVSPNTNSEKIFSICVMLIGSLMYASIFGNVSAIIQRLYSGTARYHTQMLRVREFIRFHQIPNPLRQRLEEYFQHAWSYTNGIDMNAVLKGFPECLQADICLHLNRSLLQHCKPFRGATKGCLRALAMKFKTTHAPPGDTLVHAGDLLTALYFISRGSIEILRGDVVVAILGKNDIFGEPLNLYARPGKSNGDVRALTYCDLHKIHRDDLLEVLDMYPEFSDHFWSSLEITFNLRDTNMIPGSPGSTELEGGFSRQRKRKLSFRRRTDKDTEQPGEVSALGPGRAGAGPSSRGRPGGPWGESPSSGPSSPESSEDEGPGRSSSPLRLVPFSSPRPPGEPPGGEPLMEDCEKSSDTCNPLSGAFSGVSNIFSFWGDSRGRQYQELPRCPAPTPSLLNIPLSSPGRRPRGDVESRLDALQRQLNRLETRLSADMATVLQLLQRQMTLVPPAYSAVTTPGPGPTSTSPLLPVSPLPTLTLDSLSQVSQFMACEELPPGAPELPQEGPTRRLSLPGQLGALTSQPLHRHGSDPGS

In series [2] the target is T1, Voltage-gated inwardly rectifying potassium channel KCNH2 (Homo sapiens, UniProt Q12809). Nature of the series: Binding affinity to Kv11.1 channel (unknown origin).
T1 sequence (Q12809 whole entry): as above
For series [3], the target named is T1, Voltage-gated inwardly rectifying potassium channel KCNH2. Nature of the series: Induction of dissociation of [3H]-dofetilide from Kv11.1 channel (unknown origin) assessed as dissociation rate expressed in HEK293 cells after 1 hr. The format is cell-based.
The target is the same in series [4]. Nature of the series: Allosteric modulation of Kv11.1 channel (unknown origin) expressed in HEK293 cells assessed as shift of inhibition constant for astemizole-induced displacement of [3H]-dofetilide binding at 10 uM after 1 hr relative to control. The format is cell-based. The following applies: hek293, 1 h. On the technique in general: Displacement assays read how much labelled ligand stays bound in the presence of the test substance.

The target is the same in series [5]. Nature of the series: Allosteric modulation of Kv11.1 channel (unknown origin) expressed in HEK293 cells assessed as shift of inhibition constant for dofetilide-induced displacement of [3H]-dofetilide binding at 10 uM after 1 hr relative to control. The format is cell-based. The following applies: hek293, 1 h.
Series [6] has the same target. The series can be described thus: Induction of dissociation of [3H]-dofetilide from Kv11.1 channel (unknown origin) assessed as dissociation rate expressed in HEK293 cells at 50 uM after 1 hr relative to control. In kind it is cell-based. The conditions noted are these: hek293, 1 h.

Structures are written as SMILES.

For `O=C(COc1ccc(C(=O)c2ccccc2)c(Br)c1)Nc1cccnc1`, in series [1], the activity at 0.1 h, 10 µM is 96%. In the case of `O=C(COc1ccc2ccccc2c1Br)Nc1cccnc1`, the activity at 0.1 h, 10 µM in series [1] was 66%. In addition, the affinity in series [2], expressed as Ki, was 0.0048 µM. Consider `O=C(COc1ccc(C(=O)c2cccc(F)c2Br)cc1)Nc1cccnc1`, for which, in series [1], the activity at 0.1 h, 10 µM was found to be 85%. Still for that read-out and setting: as for `O=C(COc1ccc(C(=O)c2ccccc2F)cc1)Nc1cccnc1`, the figure is 85%; as for `Cc1cncc(NC(=O)COc2ccc(C(=O)c3ccccc3Br)cc2)c1`, 121%; as for `Cc1ccc(C(=O)c2ccc(OCC(=O)Nc3cccnc3)cc2)cc1`, 97%. Regarding `O=C(COc1ccc(C(=O)c2ccccc2Br)cc1)Nc1cccnc1`, the activity at 0.1 h, 10 µM in series [1] amounted to 44%. For the same compound, in series [3], the EC50 (as a rule, the concentration at which the effect is half-maximal) amounted to 12 µM. Besides, the “fold change (FC)” value in series [4] amounted to 4.1; in series [5], 2.5; in series [6] it was 3.

As to `Cc1ccncc1NC(=O)COc1ccc(C(=O)c2ccccc2Br)cc1`, the activity at 0.1 h, 10 µM in series [1] was found to be 108%. As for `O=C(COc1ccc(C(=O)c2ccccc2Br)cc1)Nc1ccc(Cl)nn1`, the activity at 0.1 h, 10 µM in series [1] stood at 92%.

Consider `O=C(COc1ccc(C(=O)c2ccccc2Br)cc1)Nc1cnccn1`, for which the activity at 0.1 h, 10 µM in series [1] worked out at 92%. The same measure, in the same setting: the result for `O=C(COc1ccc2c(c1)-c1ccccc1C2=O)Nc1cccnc1` reads 79%; that for `O=C(COc1ccc(C(=O)c2ccccc2I)cc1)Nc1cccnc1`, 72%.

For the compound `O=C(COc1ccc(C(=O)c2cc(F)ccc2Br)cc1)Nc1cccnc1`, the activity at 0.1 h, 10 µM in series [1] is 38%. Also, the half-maximal effective concentration (EC50) in series [3] is 4.6 µM. Moreover, the results for the “fold change (FC)” value in series [4], in series [5] and in series [6] were 6.3, 4.6 and 4.1, respectively. With `O=C(COc1ccc(C(=O)c2cccc(Cl)c2)cc1)Nc1cccnc1`, the activity at 0.1 h, 10 µM in series [1] was 43%. Further, the “fold change (FC)” value in series [4] is given as 2.8; in series [5], 3.3; in series [6], 1.7.

As to `O=C(COc1ccc(C(=O)c2cccc(I)c2)cc1)Nc1cccnc1`, the activity at 0.1 h, 10 µM in series [1] came out at 62%. Consider `Cc1ccc(NC(=O)COc2ccc(C(=O)c3ccccc3Br)cc2)cn1`, for which the activity at 0.1 h, 10 µM in series [1] was 105%.

As for `COc1cncc(NC(=O)COc2ccc(C(=O)c3ccccc3Br)cc2)c1`, in series [1], the activity at 0.1 h, 10 µM is 107%. The same measure, in the same setting: the result for `O=C(COc1ccc(C(=O)c2ccccc2Cl)cc1)Nc1cccnc1` reads 71%; that for `O=C(COc1ccc(C(=O)c2ccccc2)cc1Br)Nc1cccnc1`, 96%. Still for that read-out and setting: the result for `O=C(COc1ccc(C(=O)c2ccccc2)cc1)Nc1cccnc1` reads 78%; that for `O=C(COc1ccc(C(=O)c2ccc(F)cc2)cc1)Nc1cccnc1`, 65%; that for `O=C(COc1ccc(C(=O)c2ccccc2Br)cc1)Nc1cncnc1`, 87%. Same read-out and setting: the result for `O=C(COc1ccc(C(=O)c2ccc(Cl)cc2)cc1)Nc1cccnc1` reads 104%; that for `COc1ccncc1NC(=O)COc1ccc(C(=O)c2ccccc2Br)cc1`, 105%. Turning to `O=C(COc1ccc(C(=O)c2cccc(Br)c2)cc1)Nc1cccnc1`, in series [1], the activity at 0.1 h, 10 µM was found to be 57%. The “fold change (FC)” value in series [4], in series [5] and in series [6] was 1.4 each time.

As for `O=C(COc1ccc(C(=O)c2ccccc2Br)cc1)Nc1ccc(Cl)nc1`, in series [1], the activity at 0.1 h, 10 µM stood at 95%.

In the case of `O=C(COc1ccc(C(=O)c2cccc(F)c2)cc1)Nc1cccnc1`, the activity at 0.1 h, 10 µM in series [1] was 47%. Besides, the “fold change (FC)” value in series [4] came out at 1.9; in series [5] it was 1.9; in series [6], 1.6. Consider `COc1ccc(NC(=O)COc2ccc(C(=O)c3ccccc3Br)cc2)cn1`, for which the activity at 0.1 h, 10 µM in series [1] is 124%. In the case of `O=C(COc1ccc(C(=O)c2ccccc2Br)cc1)Nc1cnc2ccccc2c1`, the activity at 0.1 h, 10 µM in series [1] turned out to be 87%.
